Here are results for one molecule from US9504671B2, “Pharmaceutical compositions of spiro-oxindole compound for topical administration and their use as therapeutic agents” (Xenon Pharmaceuticals Inc., priority 2010, dated 2016).

Where “and” joins values, the source holds several entries; their conditions need not be identical. Identical values can stand only once.

Assay [1] concerns STZ-induced neuropathic pain model. Nature of the assay: STZ model of diabetic neuropathy, von Frey. The assay is classed as in vivo, male Sprague-Dawley rats. As to conditions: 4% (w/w) topical composition, 50 mg on left foot, 30 minutes post-dosing, p<0.05. The source says: This study evaluates the efficacy of a pharmaceutical composition of the invention in the STZ-induced neuropathic pain model in male Sprague-Dawley rats, following acute dosing, as compared with a 5% (w/v) topical Lidocaine (Xylocaine®) and a 1.16% (w/v) topical Diclofenac (Voltaren®). A rodent model of painful peripheral diabetic neuropathy (PDN) that mimics human condition was created by inducing a diabetic state in the rat through the ablation of the insulin producing pancreatic beta cells. A single streptozotocin (STZ) injection destroys beta cells in rats and produces a diabetic state that over time progresses to painful Peripheral Diabetic Neuropathy (PDN).
Streptozotocin (STZ) was dissolved in citrate buffer (20 mM, pH 4.5) and administered at a dose of 60 mg/Kg, intraperitoneal, to induce pancreatic beta-cell death. Blood glucose level was measured once a week following injection, using the AccuSoft Blood Glucose Monitoring System. […] Hyperalgesia and allodynia, which are signs of diabetic neuropathic pain, were monitored using the von Frey test as described below. Von Frey measurements were recorded from both left and right paws. Only those with significant hyperalgesia as determined by reduced threshold, measured in grams, of paw withdrawal to the von Frey filament were enrolled in the study. […] During this time their health status was closely monitored.
The animals were randomly divided into 4 test groups (n=7 animals/group) including a vehicle control, a 5% (w/v) Lidocaine (Xylocaine®), a 1.16% (w/v) Diclofenac (Voltaren®), and a pharmaceutical composition with 4% (w/w) COMPOUND A. After baseline measurement, 50 mg of the test composition was applied on the entire left foot. […] The paw withdrawal thresholds of animals from mechanical tactile stimuli were measured using the Electrovonfrey anesthesiometer (Model 2290, IITC Life Science, Woodland Hills, Calif.). […] The force (g) required to elicit a crisp withdrawal response was recorded before dosing as a baseline measurement, and at 30 minutes post-dosing. […]

Assay [2] relates to CCI neuropathic pain model. Nature of the assay: efficacy of topical versus oral administration, Chronic Constriction Injury, von Frey. As to conditions: p<0.001 vs vehicle. The class given is in vivo, male Sprague Dawley rats. The source says:
The Chronic Constriction Injury (CCI) model, an established neuropathic pain model in the rat, is used in this study to compare the levels of efficacy and systemic exposure of COMPOUND A between the topical and oral administration in male rats.
A peripheral neuropathy was induced in rats by placing loose constrictive ligatures around the common sciatic nerve as described by Bennett G J, and Xie Y-K., Pain, (1988) 33: pp. 87-107. Eight-week old male Sprague Dawley rats were anaesthetized with 3.5% isoflurane, and a 3 cm incision was made through the skin and fascia at the mid-thigh level of the animal's left hind leg using a no. 10 scalpel blade. […]
A painful neuropathy was allowed to develop in the ipsilateral leg as determined by lower paw withdrawal thresholds to a mechanical stimulus. Only those with significant hyperalgesia as determined by reduced threshold, measured in grams, to paw withdrawal to the von Frey filament were enrolled in the study.
The paw withdrawal thresholds of animals from mechanical tactile stimuli were measured using the Model 2290 Electrovonfrey anesthesiometer (IITC Life Science, Woodland Hills, Calif.). […] After 15 minutes of accommodation in this enclosure, a von Frey hair was applied perpendicularly to the plantar surface of the ipsilateral hind paws of the animals, with sufficient force, measured in grams, to elicit a crisp response of the paw. […]

On to `O=C1N(Cc2ccc(C(F)(F)F)o2)c2ccccc2[C@]12COc1cc3c(cc12)OCO3` [COMPOUND A, (S)-1′-{[5-(trifluoromethyl)furan-2-yl]methyl}spiro[furo[2,3-f][1,3]benzodioxole-7,3′-indol]-2′(1′H)-one], for which the “paw withdrawal threshold of treated paw, percent mean change from baseline (CFB)” value in assay [1] is 44.9%. The “paw withdrawal threshold, percent mean change from baseline (CFB)” value in assay [2] (25 mg/Kg oral gavage, 60 minutes post-dosing) was 44.3% and 44%; in assay [2] (8% (w/w) topical, 50 mg on ipsilateral ankle and foot, 30 minutes post-dosing), 47.1% and 47%.
